Data taken from US8952024B2, “Herbicidal pyrimidone derivatives” (E I du Pont de Nemours and Company, priority 2009, dated 2015).

Experiments:
Type in all cases: in vivo
[1] = test system: morningglory (Ipomoea coccinea); assay: Test B pre-/postemergence plant response
Outline: (§1)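 Greenhouse herbicide screen. Pre- and postemergence (1- to 4-leaf) spray of compound in solvent/surfactant mixture; loam–sand soil for pre, peat/vermiculite medium for post. Visual control rating 0–100 at 13 to 15 days after treatment.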

[2] = test system: cocklebur (Xanthium strumarium); assay: Test B pre-/postemergence plant response
Outline: as §1

[3] = test system: blackgrass (Alopecurus myosuroides); assay: Test B pre-/postemergence plant response
Outline: as §1

wild oat (Avena fatua) = assay: Test B pre-/postemergence plant response
Outline: as §1

[4] = test system: pigweed (Amaranthus retroflexus); assay: Test B pre-/postemergence plant response
Outline: as §1

corn (Zea mays) = assay: Test B pre-/postemergence plant response
Outline: as §1

[5] = test system: downy bromegrass (Bromus tectorum); assay: Test B pre-/postemergence plant response
Outline: as §1

[6] = test system: Italian ryegrass (Lolium multiflorum); assay: Test B pre-/postemergence plant response
Outline: as §1

[7] = test system: Surinam grass (Brachiaria decumbens); assay: Test B pre-/postemergence plant response
Outline: as §1

[8] = test system: giant foxtail (Setaria faberii); assay: Test B pre-/postemergence plant response
Outline: as §1

[9] = test system: windgrass (Apera spica-venti); assay: Test B postemergence plant response
Outline: (§2)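 Plants at the 1- to 4-leaf stage (2 to 18 cm tall), grown in pots of peat moss/vermiculite medium with wetting agent and starter nutrients, received postemergence applications of test chemicals. After 13 to 15 days in a greenhouse, injury was rated visually against untreated controls on a 0 (no effect) to 100 (complete control) scale.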

[10] = test system: canarygrass (Phalaris minor); assay: Test B postemergence plant response
Outline: as §2

[11] = test system: chickweed (Stellaria media); assay: Test B postemergence plant response
Outline: as §2

[12] = Postemergence, 31 g ai/ha, 0 to 100 scale (0 no effect, 100 complete control)
[13] = Postemergence, 125 g ai/ha, scale 0 to 100 (0 no effect, 100 complete control)
[14] = Postemergence, 250 g ai/ha, scale 0 to 100 (0 no effect, 100 complete control), 13 to 15 days
[15] = 62 g ai/ha, postemergence, 0 is no effect, 100 is complete control, 13 to 15 days
[16] = Postemergence, 125 g ai/ha, visual rating after 13 to 15 days, scale 0 (no effect) to 100 (complete control)
[17] = Postemergence, 250 g ai/ha, scale 0 to 100 (0 no effect, 100 complete control)
[18] = Preemergence, 31 g ai/ha, scale 0 to 100 (0 no effect, 100 complete control)
[19] = Preemergence, 62 g ai/ha, scale 0 to 100 (0 no effect, 100 complete control)
[20] = Preemergence, 125 g ai/ha, scale 0 to 100, 0 no effect, 100 complete control
[21] = 31 g ai/ha, postemergence, scale 0 to 100, 0 is no effect, 100 is complete control
[22] = 250 g ai/ha, Preemergence, 0 to 100 scale
[23] = Postemergence, 62 g ai/ha, scale 0 (no effect) to 100 (complete control), 13 to 15 days

Cc1ccc(F)cc1-n1c(-c2cccc(Cl)c2)ncc(C(=O)C2=C(O)CCCC2=O)c1=O [Compound 157]
Plant response rating, Morningglory [1, 12]: 20
Plant response rating, Morningglory [1, 13]: 95
Plant response rating, Morningglory [1, 14]: 100
Plant response rating, Cocklebur [2, 12]: 100
Plant response rating, Cocklebur [2, 13]: 100
Plant response rating, Cocklebur [2, 14]: 100
Blackgrass plant response rating (0 to 100 scale) [3, 15]: 5
Plant response rating, Blackgrass [3, 12]: 0
Plant response rating, Blackgrass [3, 13]: 10
Plant response rating, Blackgrass [3, 14]: 40
Plant response rating, Oat, Wild (wild oat (Avena fatua); [12]): 30
Plant response rating, Oat, Wild (wild oat (Avena fatua); [13]): 60
Plant response rating, Oat, Wild (wild oat (Avena fatua); [14]): 70
Plant response rating, Pigweed [4, 12]: 65
Plant response rating, Pigweed [4, 13]: 90
Plant response rating, Pigweed [4, 14]: 98
Plant response rating, Corn (corn (Zea mays); [12]): 70
Plant response rating, Corn (corn (Zea mays); [13]): 95
Plant response rating, Corn (corn (Zea mays); [14]): 100
Bromegrass, Downy plant response rating (0 to 100 scale) [5, 15]: 40
Plant response rating, Bromegrass, Downy [5, 12]: 40
Plant response rating, Bromegrass, Downy [5, 13]: 60
Plant response rating, Bromegrass, Downy [5, 14]: 65
Plant response rating, Ryegrass, Italian [6, 12]: 10
Plant response rating, Ryegrass, Italian [6, 13]: 30
Plant response rating, Ryegrass, Italian [6, 14]: 35
Plant response rating, Surinam Grass [7, 12]: 75
Plant response rating, Surinam Grass [7, 13]: 98
Plant response rating, Surinam Grass [7, 14]: 100
Plant response rating, Foxtail, Giant [8, 12]: 98
Plant response rating, Foxtail, Giant [8, 13]: 100
Plant response rating, Foxtail, Giant [8, 14]: 100
Plant response rating, Windgrass [9, 12]: 60
Plant response rating, Windgrass [9, 13]: 70
Plant response rating, Windgrass [9, 14]: 80
Plant response rating, Canarygrass [10, 12]: 40
Plant response rating, Canarygrass [10, 13]: 80
Plant response rating, Canarygrass [10, 14]: 90
Plant response rating, Chickweed [11, 12]: 100
Plant response rating, Chickweed [11, 13]: 100
Plant response rating, Chickweed [11, 14]: 100

O=C1CCCC(O)=C1C(=O)c1cnc(-c2ccsc2)n(-c2ccccc2)c1=O [Compound 56]
Plant response rating, Morningglory [1, 16]: 100
Plant response rating, Morningglory [1, 17]: 100
Plant response rating, Morningglory [1, 18]: 0
Plant response rating, Morningglory [1, 19]: 0
Plant response rating, Morningglory [1, 20]: 45
Plant response rating, Cocklebur [2, 21]: 5
Plant response rating, Cocklebur [2, 22]: 0
Plant response rating, Cocklebur [2, 23]: 55
Plant response rating, Cocklebur [2, 16]: 75
Plant response rating, Cocklebur [2, 17]: 95
Plant response rating, Cocklebur [2, 18]: 0
Plant response rating, Cocklebur [2, 19]: 0
Plant response rating, Cocklebur [2, 20]: 0
Plant response rating, Blackgrass [3, 21]: 0
Plant response rating, Blackgrass [3, 22]: 5
Plant response rating, Blackgrass [3, 23]: 10
Plant response rating, Blackgrass [3, 16]: 20
Plant response rating, Blackgrass [3, 17]: 20
Plant response rating, Blackgrass [3, 18]: 0
Plant response rating, Blackgrass [3, 19]: 0
Plant response rating, Blackgrass [3, 20]: 0
Plant response rating, Oat, Wild (wild oat (Avena fatua); [21]): 5
Plant response rating, Oat, Wild (wild oat (Avena fatua); [23]): 20
Plant response rating, Oat, Wild (wild oat (Avena fatua); [16]): 40
Plant response rating, Oat, Wild (wild oat (Avena fatua); [17]): 45
Plant response rating, Oat, Wild (wild oat (Avena fatua); [18]): 0
Plant response rating, Oat, Wild (wild oat (Avena fatua); [19]): 0
Plant response rating, Oat, Wild (wild oat (Avena fatua); [20]): 0
Plant response rating, Pigweed [4, 21]: 98
Plant response rating, Pigweed [4, 23]: 98
Plant response rating, Pigweed [4, 16]: 100
Plant response rating, Pigweed [4, 17]: 100
Plant response rating, Pigweed [4, 18]: 98
Plant response rating, Pigweed [4, 19]: 100
Plant response rating, Pigweed [4, 20]: 100
Plant response rating, Corn (corn (Zea mays); [21]): 45
Plant response rating, Corn (corn (Zea mays); [22]): 0
Plant response rating, Corn (corn (Zea mays); [23]): 65
Plant response rating, Corn (corn (Zea mays); [16]): 65
Plant response rating, Corn (corn (Zea mays); [17]): 70
Plant response rating, Corn (corn (Zea mays); [18]): 0
Plant response rating, Corn (corn (Zea mays); [19]): 0
Plant response rating, Corn (corn (Zea mays); [20]): 0
Plant response rating, Bromegrass, Downy [5, 21]: 35
Plant response rating, Bromegrass, Downy [5, 22]: 5
Plant response rating, Bromegrass, Downy [5, 23]: 45
Plant response rating, Bromegrass, Downy [5, 16]: 50
Plant response rating, Bromegrass, Downy [5, 17]: 60
Plant response rating, Bromegrass, Downy [5, 18]: 0
Plant response rating, Bromegrass, Downy [5, 19]: 0
Plant response rating, Bromegrass, Downy [5, 20]: 0
Plant response rating, Ryegrass, Italian [6, 21]: 0
Plant response rating, Ryegrass, Italian [6, 23]: 0
Plant response rating, Ryegrass, Italian [6, 16]: 50
Plant response rating, Ryegrass, Italian [6, 17]: 50
Plant response rating, Ryegrass, Italian [6, 18]: 0
Plant response rating, Ryegrass, Italian [6, 19]: 0
Plant response rating, Ryegrass, Italian [6, 20]: 0
Plant response rating, Surinam Grass [7, 21]: 75
Plant response rating, Surinam Grass [7, 23]: 80
Plant response rating, Surinam Grass [7, 16]: 85
Plant response rating, Surinam Grass [7, 17]: 100
Plant response rating, Surinam Grass [7, 18]: 55
Plant response rating, Surinam Grass [7, 19]: 95
Plant response rating, Surinam Grass [7, 20]: 98
Plant response rating, Foxtail, Giant [8, 21]: 75
Plant response rating, Foxtail, Giant [8, 22]: 80
Plant response rating, Foxtail, Giant [8, 23]: 80
Plant response rating, Foxtail, Giant [8, 16]: 85
Plant response rating, Foxtail, Giant [8, 17]: 95
Plant response rating, Foxtail, Giant [8, 18]: 0
Plant response rating, Foxtail, Giant [8, 19]: 40
Plant response rating, Foxtail, Giant [8, 20]: 75
Plant response rating, Windgrass [9, 21]: 30
Plant response rating, Windgrass [9, 23]: 40
Plant response rating, Windgrass [9, 16]: 60
Plant response rating, Windgrass [9, 17]: 85
Plant response rating, Canarygrass [10, 21]: 0
Plant response rating, Canarygrass [10, 23]: 30
Plant response rating, Canarygrass [10, 16]: 40
Plant response rating, Canarygrass [10, 17]: 40
Plant response rating, Chickweed [11, 21]: 90
Plant response rating, Chickweed [11, 23]: 95
Plant response rating, Chickweed [11, 16]: 98
Plant response rating, Chickweed [11, 17]: 98
